# Measured values published in publication PMC6104039 (Nature Communications, 2018).
# Where “and” joins values, the source holds several entries; their conditions need not be identical. Identical values can stand only once.
# Test system: HEK293 cells
# Assay: Endogenous ceramide, HexCer and SM levels in cells treated 24 h, targeted LC-MS/MS
# Type: cell-based
# Conditions: HEK293 cells, 24 h
# Method: Lipids were then extracted using MTBE/methanol/water as described above.
# HEK293 cell culture experiment: Levels of each lipid in P053-treated HEK293 cells were normalised to the mean of the vehicle control group, and each concentration was compared to the control using ANOVA with Dunnett’s post-test. P values were adjusted for multiple comparisons in GraphPad PRISM.
# Supplementary Figure 1. Ceramide, SM, and HexCer levels in HEK293 cells treated with
# P053. Absolute lipid levels were determined by targeted LC-MS/MS, relative to external
# standard curves. Results are mean ± SEM (n = 4) from one of two identical experiments.
# Statistically significant results, based on two independent experiments, are as indicated in
# Figure 2b-d. Raw data for these figures is provided in Supplementary Data File 1.
smiles,measurement,setting,value
"C[C@@](N)(CO)CCc1ccc(OCc2ccc(Cl)c(Cl)c2)cc1 [P053, (S)-2-amino-4-(4-(3,4-dichlorobenzyloxy)phenyl)-2-methylbutan-1-ol]",24:1 SM level,P053 10 nM,96.7947 percentage of the vehicle control group and 98.2864 percentage of the vehicle control group and 81.9082 percentage of the vehicle control group and 117.227 percentage of the vehicle control group and 113.319 percentage of the vehicle control group and 103.033 percentage of the vehicle control group and 103.816 percentage of the vehicle control group and 97.9548 percentage of the vehicle control group
same,14:0 SM level,P053 30 nM,116.988 percentage of the vehicle control group and 111.4 percentage of the vehicle control group and 100.814 percentage of the vehicle control group and 94.1513 percentage of the vehicle control group and 120.651 percentage of the vehicle control group and 105.592 percentage of the vehicle control group and 111.904 percentage of the vehicle control group and 100.551 percentage of the vehicle control group
same,16:0 Cer level,P053 30 nM,114.03 percentage of the vehicle control group and 105.56 percentage of the vehicle control group and 86.7073 percentage of the vehicle control group and 95.6011 percentage of the vehicle control group and 106.761 percentage of the vehicle control group and 98.8726 percentage of the vehicle control group and 108.159 percentage of the vehicle control group and 97.2516 percentage of the vehicle control group
same,16:0 HexCer level,P053 30 nM,79.9911 percentage of the vehicle control group and 81.3101 percentage of the vehicle control group and 74.3038 percentage of the vehicle control group and 88.8289 percentage of the vehicle control group and 99.9863 percentage of the vehicle control group and 95.9283 percentage of the vehicle control group and 102.652 percentage of the vehicle control group and 109.256 percentage of the vehicle control group
same,16:0 SM level,P053 30 nM,101.805 percentage of the vehicle control group and 101.307 percentage of the vehicle control group and 94.9476 percentage of the vehicle control group and 93.9555 percentage of the vehicle control group and 110.566 percentage of the vehicle control group and 97.2802 percentage of the vehicle control group and 102.981 percentage of the vehicle control group and 97.8958 percentage of the vehicle control group
same,16:1 SM level,P053 30 nM,104.561 percentage of the vehicle control group and 101.096 percentage of the vehicle control group and 98.3763 percentage of the vehicle control group and 109.464 percentage of the vehicle control group and 104.292 percentage of the vehicle control group and 104.01 percentage of the vehicle control group and 101.515 percentage of the vehicle control group
same,18:0 Cer level,P053 30 nM,72.2013 percentage of the vehicle control group and 69.2543 percentage of the vehicle control group and 56.626 percentage of the vehicle control group and 64.3691 percentage of the vehicle control group and 82.5432 percentage of the vehicle control group and 84.0607 percentage of the vehicle control group and 83.9582 percentage of the vehicle control group and 71.3957 percentage of the vehicle control group
same,18:0 HexCer level,P053 30 nM,55.7883 percentage of the vehicle control group and 64.0009 percentage of the vehicle control group and 45.6733 percentage of the vehicle control group and 59.2017 percentage of the vehicle control group and 57.5393 percentage of the vehicle control group and 74.8051 percentage of the vehicle control group and 77.6074 percentage of the vehicle control group
same,18:0 SM level,P053 30 nM,73.8483 percentage of the vehicle control group and 78.6872 percentage of the vehicle control group and 83.1913 percentage of the vehicle control group and 75.9206 percentage of the vehicle control group and 97.6949 percentage of the vehicle control group and 87.2321 percentage of the vehicle control group and 89.1916 percentage of the vehicle control group and 74.9956 percentage of the vehicle control group
same,18:1 SM level,P053 30 nM,87.9585 percentage of the vehicle control group and 73.1683 percentage of the vehicle control group and 79.2449 percentage of the vehicle control group and 71.4358 percentage of the vehicle control group and 96.5941 percentage of the vehicle control group and 87.3865 percentage of the vehicle control group and 81.7473 percentage of the vehicle control group and 78.1368 percentage of the vehicle control group
same,20:0 Cer level,P053 30 nM,62.7306 percentage of the vehicle control group and 109.856 percentage of the vehicle control group and 118.09 percentage of the vehicle control group and 96.2985 percentage of the vehicle control group and 100.9 percentage of the vehicle control group and 105.057 percentage of the vehicle control group and 91.6087 percentage of the vehicle control group
same,22:0 Cer level,P053 30 nM,116.044 percentage of the vehicle control group and 99.7524 percentage of the vehicle control group and 91.9349 percentage of the vehicle control group and 88.0267 percentage of the vehicle control group and 116.852 percentage of the vehicle control group and 103.772 percentage of the vehicle control group and 120.038 percentage of the vehicle control group and 118.899 percentage of the vehicle control group
same,22:0 HexCer level,P053 30 nM,90.0465 percentage of the vehicle control group and 79.6776 percentage of the vehicle control group and 76.0982 percentage of the vehicle control group and 95.044 percentage of the vehicle control group and 107.866 percentage of the vehicle control group and 100.167 percentage of the vehicle control group and 123.322 percentage of the vehicle control group and 116.268 percentage of the vehicle control group
same,22:0 SM level,P053 30 nM,128.14 percentage of the vehicle control group and 90.1111 percentage of the vehicle control group and 110.345 percentage of the vehicle control group and 114.556 percentage of the vehicle control group and 123.558 percentage of the vehicle control group and 116.784 percentage of the vehicle control group and 129.764 percentage of the vehicle control group and 100.326 percentage of the vehicle control group
same,22:1 SM level,P053 30 nM,99.3902 percentage of the vehicle control group and 113.946 percentage of the vehicle control group and 108.27 percentage of the vehicle control group and 113.134 percentage of the vehicle control group and 107.671 percentage of the vehicle control group and 100.443 percentage of the vehicle control group and 99.5068 percentage of the vehicle control group and 95.4079 percentage of the vehicle control group
same,24:0 HexCer level,P053 30 nM,96.4804 percentage of the vehicle control group and 86.7028 percentage of the vehicle control group and 84.7209 percentage of the vehicle control group and 91.5325 percentage of the vehicle control group and 104.127 percentage of the vehicle control group and 98.7325 percentage of the vehicle control group and 129.497 percentage of the vehicle control group and 115.717 percentage of the vehicle control group
same,24:0 SM level,P053 30 nM,114.636 percentage of the vehicle control group and 105.214 percentage of the vehicle control group and 97.3725 percentage of the vehicle control group and 90.2877 percentage of the vehicle control group and 117.867 percentage of the vehicle control group and 114.443 percentage of the vehicle control group and 132.815 percentage of the vehicle control group and 128.722 percentage of the vehicle control group
same,24:1 Cer level,P053 30 nM,117.491 percentage of the vehicle control group and 102.844 percentage of the vehicle control group and 87.9247 percentage of the vehicle control group and 98.6487 percentage of the vehicle control group and 120.911 percentage of the vehicle control group and 109.977 percentage of the vehicle control group and 130.805 percentage of the vehicle control group and 124.062 percentage of the vehicle control group
same,24:1 HexCer level,P053 30 nM,93.843 percentage of the vehicle control group and 87.9781 percentage of the vehicle control group and 89.6469 percentage of the vehicle control group and 99.7739 percentage of the vehicle control group and 102.587 percentage of the vehicle control group and 104.249 percentage of the vehicle control group and 119.244 percentage of the vehicle control group and 107.968 percentage of the vehicle control group
same,24:1 SM level,P053 30 nM,102.826 percentage of the vehicle control group and 100.942 percentage of the vehicle control group and 98.397 percentage of the vehicle control group and 94.2567 percentage of the vehicle control group and 116.83 percentage of the vehicle control group and 103.091 percentage of the vehicle control group and 120.071 percentage of the vehicle control group and 112.514 percentage of the vehicle control group
same,14:0 SM level,P053 100 nM,112.517 percentage of the vehicle control group and 90.2734 percentage of the vehicle control group and 104.152 percentage of the vehicle control group and 104.709 percentage of the vehicle control group and 117.225 percentage of the vehicle control group and 115.891 percentage of the vehicle control group and 108.424 percentage of the vehicle control group and 118.856 percentage of the vehicle control group
